Data published in US4481137A, “Glycoproteins and processes for their production” (Mochida Pharmaceutical Co., Ltd., priority 1982, dated 1984).
Values after ≈ are worked out from the molar mass of the structure shown. Values joined by “and” are separate entries in the source; they are usually repeats but may differ in a detail not shown here. Equal values may be shown once.

Legend:
[1] = test system: Primary Culture Rat Liver; assay: Selectivity of cytotoxic effect, primary culture rat liver; type: cell-based; conditions: primary culture rat liver (normal), 48 h, 37°C; read-out: Concentration for 50% Inhibition of Growth
Chang Liver cells = assay: Selectivity of cytotoxic effect, normal cells Chang Liver; type: cell-based, Human; conditions: 48 h, 37°C
Experimental: (§1) Samples of 10^5 cells of each of tumor cell lines including KB cells (nasopharynx cancer), MX-1 cells (breast cancer, supplied from Dr. Shigeru Tsukagoshi, Cancer Institute), HEp-2 cells (throat cancer) and HEL cells (hepatoma, Flow Co.) and of normal cell lines including intestine 407 cells, Girardi heart cells, Chang Liver cells, Vero cells (monkey kidney) and MDCK cells (dog kidney) (Flow Co.), all of which had been precultured for 24 hours respectively, and 10^5 cells of each of P388 and L1210 cells (leukemia, supplied from Dr. Shigeru Tsukagoshi, Cancer Institute), which were used immediately, were each cultured in 1 ml of Eagle's medium containing 10% calf serum and each test substance at 37° C. for 48 hours in a 5% CO2, 95% air atmosphere. Thereafter the number of the viable cells not stained by Trypan Blue was counted under a light microscope, and the concentration of the test substance at which 50% of the cells are killed was calculated against a control taken as 100. […] One unit of the Lymphotoxins and CBF is expressed by a conventional index which is based on the cytotoxicity on mouse L cells (Eds., Bloom, B. R. & Grade, P. R. "In Vitro Methods in Cell-mediated Immunity", Academic Press,1979).

Sarcoma 180 = assay: Influence on mice transplanted with Sarcoma 180, survival; type: in vivo, mouse
Source text: (§2) Male mice (ddY-Strain) weighing 25-30 g were intraperitoneally transplanted with 3×10^6 cells per animal of Sarcoma 180 or Ehrlich ascites tumor and the period of survival in days was observed.

HEp-2 cells = assay: Selectivity of cytotoxic effect, HEp-2 cells (throat cancer); type: cell-based, Human; conditions: HEp-2, 48 h, 37°C
Experimental: as §1

mouse melanoma B 16 = assay: Influence on the survival period of melanoma bearing mice; type: in vivo
Source text: BDF1 -strain male mice weighing 20-25 g had transplanted subcutaneously in their back 10^6 cells per animal of mouse melanoma B 16, and the survival days were observed.

MX-1 cells = assay: Selectivity of cytotoxic effect, MX-1 cells (breast cancer); type: cell-based, Human; conditions: MX-1, 48 h, 37°C
Experimental: as §1

P388 cells = assay: Selectivity of cytotoxic effect, P388 cells (leukemia); type: cell-based, Mouse; conditions: P388, 48 h, 37°C
Experimental: as §1

Lewis's lung carcinoma = assay: Influence on the survival days of lung carcinoma bearing mice; type: in vivo, mouse
Source text: BDF1 -strain male mice weighing 20-25 g were transplanted with 2×10^6 cells of Lewis's lung carcinoma intramuscularly to the right thigh, and the survival days were observed.

intestine 407 cells = assay: Selectivity of cytotoxic effect, normal cells intestine 407; type: cell-based, Human; conditions: intestine 407 (normal), 37°C
Experimental: as §1

L1210 cells = assay: Selectivity of cytotoxic effect, L1210 cells (leukemia); type: cell-based, Mouse; conditions: L1210, 48 h, 37°C
Experimental: as §1

HEL cells = assay: Selectivity of cytotoxic effect, HEL cells (hepatoma); type: cell-based, Human; conditions: 48 h, 37°C
Experimental: as §1

MDCK cells = assay: Selectivity of cytotoxic effect, normal cells MDCK (dog kidney); type: cell-based; conditions: 48 h, 37°C
Experimental: as §1

[2] = test system: 3-Methylcholanthrene-induced tumor; assay: Influence on methylcholanthrene-induced tumor; type: in vivo, ddY-strain mice; conditions: daily dose 0.5 mg/kg, mean ± SE (control 10.5 ± 2.3)
Experimental: 3-Methylcholanthrene dissolved in olive oil was subcutaneously injected to the lateral abdomen of ddY-strain mice, weighing 20-25 g, 8 animals in each group, at 0.5 mg per mouse. CBX3 obtained in Example 26 or 29 was intravenously administered to the mice once a day for 21 days from about 60 days after the 3-Methylcholanthren injection. On the 21st day after the first CBX3 administration, the volume of the tumor was measured.

KB cells = assay: Selectivity of cytotoxic effect, KB cells (nasopharynx cancer); type: cell-based, Human; conditions: 48 h, 37°C
Experimental: as §1

[3] = test system: tumor cells and normal cells; assay: Cytotoxicity, selectivity tumor cells versus normal cells; type: cell-based
Source text: One unit of CB is defined to be the amount of the substance at which the growth of 10^5 nasopharynx cancer of KB cell is inhibited by 50%.
as §1

mouse leukemia P388 = assay: Influence on the survival days of leukemic mice, P388; type: in vivo
Source text: (§3) BDF1 -strain male mice weighing 20-25 g were intraperitoneally transplanted with 10^5 cells per animal of mouse leukemia L1210 or 10^6 cells per animal of mouse leukemia […], and the period of survival in days was observed.

Ehrlich ascites tumor = assay: Influence on mice transplanted with Ehrlich ascites tumor, survival; type: in vivo, mouse
Source text: as §2

Vero cells = assay: Selectivity of cytotoxic effect, normal cells Vero (monkey kidney); type: cell-based; conditions: 48 h, 37°C
Experimental: as §1

human breast cancer MX-1 = assay: Influence on breast cancer bearing mice; type: in vivo, BALB/C strain nude mice; conditions: daily dose 0.5 mg/kg, mean ± SE (control 9.7 ± 2.2)
Experimental: BALB/C strain nude mice weighing 20-25 g, 6 animals in each group, had transplanted subcutaneously into their backs 2 mm square segments of human breast cancer MX-1. CBX3 obtained in Example 26 or 29 was intravenously administered into the mice for 14 days from the 14th day after the transplantation. On the 15th day after the first administration,the volume of the primary tumor was measured.

mouse leukemia L1210 = assay: Influence on the survival days of leukemic mice, L1210; type: in vivo
Source text: as §3

[4] = test system: tumor cells and normal cells; conditions: as reported in the literature; cited from earlier work
Lewis's lung cancer = assay: Influence on the lung metastasis of cancer; type: in vivo, mouse; conditions: mean ± SE
Experimental: Groups of BDF1 -strain male mice weighing 20-30 g, 6 animals in each group, had transplanted subcutaneously into their backs 2 mm square segments of Lewis's lung cancer. […] On the 21st day after transplantation, the mass of primary tumor was isolated and weighed, and the number of the metastasized nodes in the animal's lungs was calculated according to the method of Wexler, H. (J. Natl. Cancer Institute, Vol. 36 641 (1966)).

[5] = test system: acute myelogenous leukemia cells M-1; assay: Effect on inducing differentiation of tumor cells; type: cell-based; conditions: 20.0 ng/ml, 48 h (control 1)
Experimental: According to the method of Hozumi, M. et al (Cancer Research, Vol, 40, 2919-2924 (1980)), 5×10^5 cells of acute myelogenous leukemia cells M-1 (supplied from Dr. Motoo Hozumi, Saitama Cancer Center) were suspended in 1 ml of Eagle's medium containing 10% calf serum and also containing amino acids and vitamins in amounts twice the ordinary levels, to which each test substance had been added, and cultured at 37° C. for 48 hours in a 5% CO2, 95% air atmosphere. Thereafter, the cells were resuspended in a medium containing 0.2% polystyrene latex particles (Dow Chemical Co.) and incubated at 37° C. for 4 hours. Then the total number of cells which phagocytotized the particles and the total number of cells were counted under a light microscope, and the differentiation rate was calculated from the ratio of these cells.

[6] = Homo sapiens, read-out: Concentration for 50% Inhibition of Growth
[7] = Mus musculus, read-out: Concentration for 50% Inhibition of Growth
[8] = daily dose 0.5 mg/kg, 0.5 mg/kg

CO[C@@]12[C@H](COC(N)=O)C3=C(C(=O)C(C)=C(N)C3=O)N1C[C@@H]1N[C@@H]12 [Mitomycin C]
IC50 [1]: 61 mg/L (≈ 182 µM) | Concentration for 50% Inhibition of Growth (Chang Liver cells): 21 µg/mL | IC50 (Chang Liver cells; Homo sapiens, Chang liver, read-out: Concentration for 50% Inhibition of Growth): 19 mg/L (≈ 56.8 µM) | Average Survival Days (% of control group) (Sarcoma 180; Sarcoma 180, daily dose 0.5 mg/kg, 0.5 mg/kg): 140% and 138% and 142% | Concentration for 50% Inhibition of Growth (HEp-2 cells): 18 µg/mL | IC50 (HEp-2 cells; [6]): 17 mg/L (≈ 50.8 µM) | Average Survival Days (% of control group) (mouse melanoma B 16; melanoma B 16, daily dose 0.5 mg/kg, 0.5 mg/kg): 140% | IC50 (MX-1 cells; Homo sapiens, MX1, 48 h, read-out: Concentration for 50% Inhibition of Growth): 32 mg/L (≈ 95.7 µM) | Concentration for 50% Inhibition of Growth (MX-1 cells): 30 µg/mL | IC50 (P388 cells; [7]): 36 mg/L (≈ 108 µM) | Concentration for 50% Inhibition of Growth (P388 cells): 37 µg/mL | Average Survival Days (% of control group) (Lewis's lung carcinoma; [8]): 121% and 120% | IC50 (intestine 407 cells; Homo sapiens, Intestine 407, 48 h, read-out: Concentration for 50% Inhibition of Growth): 32 mg/L (≈ 95.7 µM) | Concentration for 50% Inhibition of Growth (intestine 407 cells; 48 h): 35 µg/mL | Concentration for 50% Inhibition of Growth (L1210 cells): 44 µg/mL | IC50 (L1210 cells; [7]): 43 mg/L (≈ 129 µM) | Concentration for 50% Inhibition of Growth (HEL cells): 25 µg/mL | IC50 (HEL cells; [6]): 26 mg/L (≈ 77.8 µM) | Concentration for 50% Inhibition of Growth (MDCK cells): 44 µg/mL | IC50 (MDCK cells; Canis lupus familiaris, MDCK, read-out: Concentration for 50% Inhibition of Growth): 41 mg/L (≈ 123 µM) | Tumor Volume [2]: 6.6 ± 1.3 cm^3 | Concentration for 50% Inhibition of Growth (KB cells): 35 µg/mL | IC50 (KB cells; [6]): 34 mg/L (≈ 102 µM) | Cytotoxicity, selectivity for tumor cells over normal cells (in words) [3]: nonselective cytotoxicity to the normal cells and the tumor cells | Average Survival Days (% of control group) (mouse leukemia P388; P388, daily dose 0.5 mg/kg, 0.5 mg/kg): 133% and 130% | Average Survival Days (% of control group) (mouse leukemia P388; P388, dose 5.0 mg/kg (Table 4-3)): 141% | Average Survival Days (% of control group) (Ehrlich ascites tumor; [8]): 168% and 164% and 166% | Concentration for 50% Inhibition of Growth (Vero cells): 50 µg/mL | IC50 (Vero cells; Primates, Vero, read-out: Concentration for 50% Inhibition of Growth): 52 mg/L (≈ 156 µM) | Tumor Volume (human breast cancer MX-1): 4.4 ± 1.1 cm^3 | Average Survival Days (% of control group) (mouse leukemia L1210; L1210, daily dose 0.5 mg/kg, 0.5 mg/kg): 128% and 136% | Average Survival Days (% of control group) (mouse leukemia L1210; L1210, dose 5.0 mg/kg (Table 4-3)): 132%

Tumor Necrosis Factor
Cytotoxic effect, selectivity for tumor cells over normal cells (in words) [4]: selective cytotoxic effect on tumor cells

O=P1(N(CCCl)CCCl)NCCCO1 (centres unmarked) [Cyclophosphamide]
Tumor Weight (Lewis's lung cancer; Table 7-1 Experiment 1 (control 9.6 ± 1.9), daily dose printed 20 unit/kg): 3.4 ± 0.7 g | No. of Metastasized Nodes in Lung (Lewis's lung cancer; Table 7-1 Experiment 1 (control 29.2 ± 7.3), daily dose printed 20 unit/kg): 0.4 ± 0.2 | Tumor Weight (Lewis's lung cancer; Table 7-2 (control 7.8 ± 0.5), daily dose printed 20 unit/kg): 3.5 ± 0.6 g | No. of Metastasized Nodes in Lung (Lewis's lung cancer; Table 7-2, daily dose printed 20 unit/kg): 0.6 ± 0.3 | Average Survival Days (% of control group) (Sarcoma 180; Sarcoma 180, daily dose 20 mg/kg, 20 mg/kg): 172% and 170% | Average Survival Days (% of control group) (mouse melanoma B 16; melanoma B 16, daily dose 20 mg/kg): 158% | Average Survival Days (% of control group) (Lewis's lung carcinoma; daily dose 20 mg/kg, 20 mg/kg): 163% and 164% | Average Survival Days (% of control group) (mouse leukemia P388; P388, daily dose 20 mg/kg, 20 mg/kg): 147% and 145% | Average Survival Days (% of control group) (Ehrlich ascites tumor; daily dose 20 mg/kg, 20 mg/kg): 212% and 206% | Average Survival Days (% of control group) (mouse leukemia L1210; L1210, daily dose 20 mg/kg, 20 mg/kg): 172% and 149%

C[C@@H]1C[C@H]2[C@@H]3CCC4=CC(=O)C=C[C@]4(C)[C@@]3(F)[C@@H](O)C[C@]2(C)[C@@]1(O)C(=O)CO [Dexamethasone]
Differentiation Rate [5]: 25%
